According to PubChem BioAssay AID1918995 (Molecular Pharmacology Branch, DTP, NCI, 2023):
Several values for one entry are separate records, joined by “and”; a condition that tells them apart may be missing. Identical values can stand only once.

System: 324938-238-R-J1-PDC complex spheroid growth, % test/control
Test: Anticancer human tumor 324938-238-R-J1-PDC patient-derived bladder carcinoma cell line growth inhibition [AhR]
Settings: for viability, T/C: stronger effect = lower value
Procedure, shortened: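 Agents were dosed in half-log steps down from roughly clinical Cmax, or from 10 microM where Cmax was unknown, alone and with AhR antagonists. Read-out: percent test/control growth of tumor spheroids containing HUVEC and MSC stromal cells.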

[1] = curve of first compound, second compound 0.1 µM
[2] = curve of first compound, second compound 0.316 µM
[3] = curve of first compound, second compound 1 µM
[4] = curve of first compound, second compound 3.16 µM
[5] = curve of first compound, second compound 10 µM
[6] = second compound 0.1 µM, first compound 0.0316 µM
[7] = second compound 0.1 µM, first compound 0.1 µM
[8] = second compound 0.316 µM, first compound 0.0316 µM
[9] = second compound 0.316 µM, first compound 0.1 µM
[10] = second compound 1 µM, first compound 0.0316 µM
[11] = second compound 1 µM, first compound 0.1 µM
[12] = second compound 3.16 µM, first compound 0.0316 µM
[13] = second compound 3.16 µM, first compound 0.1 µM
[14] = second compound 10 µM, first compound 0.0316 µM
[15] = second compound 10 µM, first compound 0.1 µM
[16] = second compound 0.1 µM, first compound 0.316 µM
[17] = second compound 0.1 µM, first compound 1 µM
[18] = second compound 0.1 µM, first compound 3.16 µM
[19] = second compound 0.1 µM, first compound 10 µM
[20] = second compound 0.316 µM, first compound 0.316 µM
[21] = second compound 0.316 µM, first compound 1 µM
[22] = second compound 0.316 µM, first compound 3.16 µM
[23] = second compound 0.316 µM, first compound 10 µM
[24] = second compound 1 µM, first compound 0.316 µM
[25] = second compound 1 µM, first compound 1 µM
[26] = second compound 1 µM, first compound 3.16 µM
[27] = second compound 1 µM, first compound 10 µM
[28] = second compound 3.16 µM, first compound 0.316 µM
[29] = second compound 3.16 µM, first compound 1 µM
[30] = second compound 3.16 µM, first compound 3.16 µM
[31] = second compound 3.16 µM, first compound 10 µM
[32] = second compound 10 µM, first compound 0.316 µM
[33] = second compound 10 µM, first compound 1 µM
[34] = second compound 10 µM, first compound 3.16 µM
[35] = second compound 10 µM, first compound 10 µM
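Further: spheroids exposed to agents for seven days before viability read.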

Cn1ncnc1C1c2n[nH]c(=O)c3cc(F)cc(c23)NC1c1ccc(F)cc1 (centres undefined) + CC(CO)NC(=O)c1cc(-c2ccc(Cl)cc2)nn(-c2cnn(C)c2)c1=O
IC50 [1]: > 0.1 µM
IC50 [2]: 0.0919 µM
IC50 [3]: > 0.1 µM
IC50 [4]: 0.0606 µM
IC50 [5]: 0.0187 µM
viability, T/C (second compound 0.1 µM, first compound 0.000316 µM): 93.4%
viability, T/C (second compound 0.1 µM, first compound 0.001 µM): 107%
viability, T/C (second compound 0.1 µM, first compound 0.00316 µM): 87.1%
viability, T/C (second compound 0.1 µM, first compound 0.01 µM): 76.3%
viability, T/C [6]: 61.4%
viability, T/C [7]: 58.5%
viability, T/C (second compound 0.316 µM, first compound 0.000316 µM): 83.5%
viability, T/C (second compound 0.316 µM, first compound 0.001 µM): 92.8%
viability, T/C (second compound 0.316 µM, first compound 0.00316 µM): 92.7%
viability, T/C (second compound 0.316 µM, first compound 0.01 µM): 81.7%
viability, T/C [8]: 62.9%
viability, T/C [9]: 48.9%
viability, T/C (second compound 1 µM, first compound 0.000316 µM): 76.8%
viability, T/C (second compound 1 µM, first compound 0.001 µM): 82.2%
viability, T/C (second compound 1 µM, first compound 0.00316 µM): 79.2%
viability, T/C (second compound 1 µM, first compound 0.01 µM): 69.6%
viability, T/C [10]: 61%
viability, T/C [11]: 53.5%
viability, T/C (second compound 3.16 µM, first compound 0.000316 µM): 67.6%
viability, T/C (second compound 3.16 µM, first compound 0.001 µM): 71.9%
viability, T/C (second compound 3.16 µM, first compound 0.00316 µM): 71%
viability, T/C (second compound 3.16 µM, first compound 0.01 µM): 61.5%
viability, T/C [12]: 52.1%
viability, T/C [13]: 47.3%
viability, T/C (second compound 10 µM, first compound 0.000316 µM): 67.3%
viability, T/C (second compound 10 µM, first compound 0.001 µM): 65.8%
viability, T/C (second compound 10 µM, first compound 0.00316 µM): 60.7%
viability, T/C (second compound 10 µM, first compound 0.01 µM): 53%
viability, T/C [14]: 44.5%
viability, T/C [15]: 43%

CC(CO)NC(=O)c1cc(-c2ccc(Cl)cc2)nn(-c2cnn(C)c2)c1=O (centres undefined)
viability, T/C (compound 0.316 µM): 91% [middle of 21 runs]
viability, T/C (compound 1 µM): 82.4% [middle of 21 runs]
viability, T/C (compound 10 µM): 68.8% [middle of 19 runs]
IC50 (compound alone, run of 07/12/2022): > 10 µM

Nc1ncn(C2CC(O)C(CO)S2)c(=O)n1 (centres undefined)
viability, T/C (compound 0.000949 µM): 106% and 103% and 93.4%
viability, T/C (compound 0.003 µM): 86.6% and 105% and 95.5%
viability, T/C (compound 0.00949 µM): 86.8% and 106% and 94.1%
viability, T/C (compound 0.03 µM): 116% and 92.5% and 88.8%
viability, T/C (compound 0.0949 µM): 96.4% and 71.2% and 66.3%
viability, T/C (compound 0.3 µM): 138% and 60.1% and 43.4%
IC50 (curve of compound): > 0.3 µM and 0.215 µM

CC1(C)CCC(CN2CCN(c3ccc(C(=O)NS(=O)(=O)c4ccc(NCC5CCOCC5)c([N+](=O)[O-])c4)c(Oc4cnc5[nH]ccc5c4)c3)CC2)=C(c2ccc(Cl)cc2)C1 + CC(CO)NC(=O)c1cc(-c2ccc(Cl)cc2)nn(-c2cnn(C)c2)c1=O
IC50 [1]: > 10 µM
IC50 [2]: > 10 µM
IC50 [3]: > 10 µM
IC50 [4]: > 10 µM
IC50 [5]: > 10 µM
viability, T/C [6]: 102%
viability, T/C [7]: 101%
viability, T/C [16]: 91.8%
viability, T/C [17]: 77.1%
viability, T/C [18]: 72.4%
viability, T/C [19]: 61.4%
viability, T/C [8]: 96.2%
viability, T/C [9]: 96.7%
viability, T/C [20]: 89.9%
viability, T/C [21]: 82.2%
viability, T/C [22]: 70.9%
viability, T/C [23]: 61.8%
viability, T/C [10]: 80.6%
viability, T/C [11]: 87.9%
viability, T/C [24]: 92.3%
viability, T/C [25]: 72%
viability, T/C [26]: 68.2%
viability, T/C [27]: 62%
viability, T/C [12]: 71.8%
viability, T/C [13]: 77.6%
viability, T/C [28]: 68.3%
viability, T/C [29]: 61.3%
viability, T/C [30]: 65.5%
viability, T/C [31]: 54.4%
viability, T/C [14]: 62.2%
viability, T/C [15]: 63.4%
viability, T/C [32]: 67.6%
viability, T/C [33]: 59.4%
viability, T/C [34]: 61.5%
viability, T/C [35]: 50.6%

COc1ccc([C@@H](O)c2cc(-c3ncnc4cc(N5CCOCC5)ccc34)c(F)cc2Cl)nn1
viability, T/C (compound 0.0316 µM): 109% (2×) and 99.4%
viability, T/C (compound 0.1 µM): 115% and 112% and 109%
viability, T/C (compound 0.316 µM): 59.1% and 92.5% and 94%
viability, T/C (compound 1 µM): 82.9% and 89.8% and 84%
viability, T/C (compound 3.16 µM): 59.8% and 80.3% and 73.2%
viability, T/C (compound 10 µM): 33.9% and 66% and 60.1%
IC50 (curve of compound): 4.38 µM and > 10 µM

COc1cccc2c1C(=O)c1c(O)c3c(c(O)c1C2=O)CC(O)(C(=O)CO)CC3OC1CC(N)C(O)C(C)O1 (centres undefined)
viability, T/C (compound 0.0316 µM): 69.2% and 39.5% and 37.4%
viability, T/C (compound 0.1 µM): 86% and 31.1% and 26.5%
viability, T/C (compound 0.316 µM): 53.9% and 16.3% and 19.6%
viability, T/C (compound 1 µM): 2.48% and 4.61% and 4.55%
viability, T/C (compound 3.16 µM): 1.18% and 0.26% and 0.23%
viability, T/C (compound 10 µM): 0.6% and 0.23% and 0.35%

O=C(C=Cn1cnc(-c2cc(C(F)(F)F)cc(C(F)(F)F)c2)n1)NNc1cnccn1 + Cc1cncc(-c2nc(NCCc3c[nH]c4ccccc34)c3ncn(C(C)C)c3n2)c1
IC50 [1]: > 3 µM
IC50 [2]: 0.639 µM
IC50 [3]: 1.1 µM
IC50 [4]: 0.74 µM
IC50 [5]: < 0.00949 µM
viability, T/C (second compound 0.1 µM, first compound 0.00949 µM): 86.6%
viability, T/C (second compound 0.1 µM, first compound 0.03 µM): 94.1%
viability, T/C (second compound 0.1 µM, first compound 0.0949 µM): 66.5%
viability, T/C (second compound 0.1 µM, first compound 0.3 µM): 56.2%
viability, T/C (second compound 0.1 µM, first compound 0.949 µM): 53.2%
viability, T/C (second compound 0.1 µM, first compound 3 µM): 44.3%
viability, T/C (second compound 0.316 µM, first compound 0.00949 µM): 95.5%
viability, T/C (second compound 0.316 µM, first compound 0.03 µM): 90.8%
viability, T/C (second compound 0.316 µM, first compound 0.0949 µM): 110%
viability, T/C (second compound 0.316 µM, first compound 0.3 µM): 64.9%
viability, T/C (second compound 0.316 µM, first compound 0.949 µM): 47.1%
viability, T/C (second compound 0.316 µM, first compound 3 µM): 37.3%
viability, T/C (second compound 1 µM, first compound 0.00949 µM): 112%
viability, T/C (second compound 1 µM, first compound 0.03 µM): 94.7%
viability, T/C (second compound 1 µM, first compound 0.0949 µM): 80.7%
viability, T/C (second compound 1 µM, first compound 0.3 µM): 79.7%
viability, T/C (second compound 1 µM, first compound 0.949 µM): 50.4%
viability, T/C (second compound 1 µM, first compound 3 µM): 31.4%
viability, T/C (second compound 3.16 µM, first compound 0.00949 µM): 120%
viability, T/C (second compound 3.16 µM, first compound 0.03 µM): 103%
viability, T/C (second compound 3.16 µM, first compound 0.0949 µM): 93.1%
viability, T/C (second compound 3.16 µM, first compound 0.3 µM): 60.6%
viability, T/C (second compound 3.16 µM, first compound 0.949 µM): 42.3%
viability, T/C (second compound 3.16 µM, first compound 3 µM): 47.6%
viability, T/C (second compound 10 µM, first compound 0.00949 µM): 16.9%
viability, T/C (second compound 10 µM, first compound 0.03 µM): 7.37%
viability, T/C (second compound 10 µM, first compound 0.0949 µM): 15%
viability, T/C (second compound 10 µM, first compound 0.3 µM): 20.5%
viability, T/C (second compound 10 µM, first compound 0.949 µM): 22.1%
viability, T/C (second compound 10 µM, first compound 3 µM): 25.8%

CC1COCCN1c1cc(C2(S(C)(=N)=O)CC2)nc(-c2ccnc3[nH]ccc23)n1 (centres undefined) + Cc1ccccc1N=Nc1ccc(NC(=O)c2ccnn2C)c(C)c1
IC50 [1]: 5.95 µM
IC50 [2]: 4.66 µM
IC50 [3]: 3.88 µM
IC50 [4]: 4.6 µM
IC50 [5]: 5.12 µM
viability, T/C [6]: 97.8%
viability, T/C [7]: 96.8%
viability, T/C [16]: 98.3%
viability, T/C [17]: 90.4%
viability, T/C [18]: 68.5%
viability, T/C [19]: 34.9%
viability, T/C [8]: 84.1%
viability, T/C [9]: 89.5%
viability, T/C [20]: 90.3%
viability, T/C [21]: 80.2%
viability, T/C [22]: 59%
viability, T/C [23]: 32.8%
viability, T/C [10]: 91.3%
viability, T/C [11]: 83.5%
viability, T/C [24]: 95%
viability, T/C [25]: 84.6%
viability, T/C [26]: 53.4%
viability, T/C [27]: 34.8%
viability, T/C [12]: 72.7%
viability, T/C [13]: 78.2%
viability, T/C [28]: 76.5%
viability, T/C [29]: 68.6%
viability, T/C [30]: 57.3%
viability, T/C [31]: 33.2%
viability, T/C [14]: 73.8%
viability, T/C [15]: 69.3%
viability, T/C [32]: 68.7%
viability, T/C [33]: 66%
viability, T/C [34]: 56.5%
viability, T/C [35]: 40.8%
